In PubChem BioAssay AID1845217 (Molecular Pharmacology Branch, DTP, NCI, 2023):
Where “and” joins values, the source holds several entries; their conditions need not be identical. Identical values can stand only once. Calls of active or inactive are those of the source. The calls were made as follows: active = viability on the fitted dose curve at most 10% of control; inactive = the rest.

Tested on: VA-ES-BJ tumor spheroid viability
Test: Anticancer human tumor VA-ES-BJ cell line growth inhibition;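 as to IC50: spheroids exposed to compounds for seven days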;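 as to viability, T/C: spheroids exposed to compounds for seven days; percent of DMSO vehicle control viability so 100% = untreated growth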
Conditions: spheroids with HUVEC and MSC; for viability, T/C: stronger effect = lower value
Summary of the method: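 Complex spheroids of malignant cells with endothelial cells and mesenchymal stem cells; agents alone or combined, from near clinical Cmax (or 10 microM if unknown) down in half-log steps, 0.25% DMSO final.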

[1] = curve of first compound, second compound 1 µM
[2] = curve of first compound, second compound 3.16 µM
[3] = curve of first compound, second compound 10 µM
[4] = curve of first compound, second compound 31.6 µM
[5] = curve of first compound, second compound 100 µM
[6] = second compound 1 µM, first compound 0.0316 µM
[7] = second compound 1 µM, first compound 0.1 µM
[8] = second compound 1 µM, first compound 0.316 µM
[9] = second compound 1 µM, first compound 1 µM
[10] = second compound 1 µM, first compound 3.16 µM
[11] = second compound 1 µM, first compound 10 µM
[12] = second compound 3.16 µM, first compound 0.0316 µM
[13] = second compound 3.16 µM, first compound 0.1 µM
[14] = second compound 3.16 µM, first compound 0.316 µM
[15] = second compound 3.16 µM, first compound 1 µM
[16] = second compound 3.16 µM, first compound 3.16 µM
[17] = second compound 3.16 µM, first compound 10 µM
[18] = second compound 10 µM, first compound 0.0316 µM
[19] = second compound 10 µM, first compound 0.1 µM
[20] = second compound 10 µM, first compound 0.316 µM
[21] = second compound 10 µM, first compound 1 µM
[22] = second compound 10 µM, first compound 3.16 µM
[23] = second compound 10 µM, first compound 10 µM
[24] = second compound 31.6 µM, first compound 0.0316 µM
[25] = second compound 31.6 µM, first compound 0.1 µM
[26] = second compound 31.6 µM, first compound 0.316 µM
[27] = second compound 31.6 µM, first compound 1 µM
[28] = second compound 31.6 µM, first compound 3.16 µM
[29] = second compound 31.6 µM, first compound 10 µM
[30] = second compound 100 µM, first compound 0.0316 µM
[31] = second compound 100 µM, first compound 0.1 µM
[32] = second compound 100 µM, first compound 0.316 µM
[33] = second compound 100 µM, first compound 1 µM
[34] = second compound 100 µM, first compound 3.16 µM
[35] = second compound 100 µM, first compound 10 µM

`COc1cc(C)[nH]c(=O)c1CN1CCc2c(Cl)cc(C(OC)C3COC3)c(Cl)c2C1=O` (configuration not stated) + COc1cc2c(cc1O)CCNC21CSC2c3c(OC(C)=O)c(C)c4c(c3C(COC1=O)N1C(O)C3Cc5cc(C)c(OC)c(O)c5C(C21)N3C)OCO4 was tested, and the IC50 (curve of first compound, second compound 30 pM) was 933 nM, the IC50 (curve of first compound, second compound 94.9 pM) was 981 nM and the IC50 (curve of first compound, second compound 0.0003 µM) was under 31.6 nM. For the same compound, the IC50 (curve of first compound, second compound 0.000949 µM) was under 31.6 nM, the IC50 (curve of first compound, second compound 0.003 µM) was under 31.6 nM and the viability, T/C (second compound 30 pM, first compound 0.0316 µM) was 75.7%. The viability, T/C (second compound 30 pM, first compound 0.1 µM) was 71.1%, the viability, T/C (second compound 30 pM, first compound 0.316 µM) was 58.6% and the viability, T/C (second compound 30 pM, first compound 1 µM) was 49.4%. The viability, T/C (second compound 30 pM, first compound 3.16 µM) was 45.2%, the viability, T/C (second compound 30 pM, first compound 10 µM) was 40.9% and the viability, T/C (second compound 94.9 pM, first compound 0.0316 µM) was 66.9%. The viability, T/C (second compound 94.9 pM, first compound 0.1 µM) was 68.6%, the viability, T/C (second compound 94.9 pM, first compound 0.316 µM) was 59.3% and the viability, T/C (second compound 94.9 pM, first compound 1 µM) was 49%. The viability, T/C (second compound 94.9 pM, first compound 3.16 µM) was 43.1%, the viability, T/C (second compound 94.9 pM, first compound 10 µM) was 36.8% and the viability, T/C (second compound 0.0003 µM, first compound 0.0316 µM) was 38.5%. The viability, T/C (second compound 0.0003 µM, first compound 0.1 µM) was 36.2%, the viability, T/C (second compound 0.0003 µM, first compound 0.316 µM) was 33.1% and the viability, T/C (second compound 0.0003 µM, first compound 1 µM) was 36.7%. The viability, T/C (second compound 0.0003 µM, first compound 3.16 µM) was 27.2%, the viability, T/C (second compound 0.0003 µM, first compound 10 µM) was 29.4% and the viability, T/C (second compound 0.000949 µM, first compound 0.0316 µM) was 2.44%. The viability, T/C (second compound 0.000949 µM, first compound 0.1 µM) was 2.53%, the viability, T/C (second compound 0.000949 µM, first compound 0.316 µM) was 2.69% and the viability, T/C (second compound 0.000949 µM, first compound 1 µM) was 2.75%. The viability, T/C (second compound 0.000949 µM, first compound 3.16 µM) was 2.25%, the viability, T/C (second compound 0.000949 µM, first compound 10 µM) was 1.84% and the viability, T/C (second compound 0.003 µM, first compound 0.0316 µM) was 1.25%. It also gave a viability, T/C (second compound 0.003 µM, first compound 0.1 µM) of 1.11%, a viability, T/C (second compound 0.003 µM, first compound 0.316 µM) of 1.37% and a viability, T/C (second compound 0.003 µM, first compound 1 µM) of 1.01%. The viability, T/C (second compound 0.003 µM, first compound 3.16 µM) was 1.1% and the viability, T/C (second compound 0.003 µM, first compound 10 µM) was 2%.
Work on `Cc1cc(C)c(CNC(=O)c2cc(-c3ccc(CN4CCOCC4)cc3)cc3c2cnn3C2CCCC2)c(=O)[nH]1` + Cn1nnc2c(C(N)=O)ncn2c1=O yielded an IC50 [1] of over 10000 nM, an IC50 [2] of over 10000 nM and an IC50 [3] of over 10000 nM. It also gave an IC50 [4] of over 10000 nM, an IC50 [5] of over 10000 nM and a viability, T/C [6] of 114%. For the same compound, the viability, T/C [7] was 97.9%, the viability, T/C [8] was 101% and the viability, T/C [9] was 113%. It also gave a viability, T/C [10] of 117%, a viability, T/C [11] of 104% and a viability, T/C [12] of 99.2%. It also gave a viability, T/C [13] of 102%, a viability, T/C [14] of 92.7% and a viability, T/C [15] of 97.6%. The viability, T/C [16] was 110%, the viability, T/C [17] was 101% and the viability, T/C [18] was 102%. The viability, T/C [19] was 100%, the viability, T/C [20] was 101% and the viability, T/C [21] was 109%. The viability, T/C [22] was 108%, the viability, T/C [23] was 104% and the viability, T/C [24] was 91.2%. The viability, T/C [25] was 96.8%, the viability, T/C [26] was 94.8% and the viability, T/C [27] was 110%. It also gave a viability, T/C [28] of 104%, a viability, T/C [29] of 96% and a viability, T/C [30] of 103%. The viability, T/C [31] was 108%, the viability, T/C [32] was 92.1% and the viability, T/C [33] was 102%. The viability, T/C [34] was 122% and the viability, T/C [35] was 109%.
With `COc1ccc([C@@H](O)c2cc(-c3ncnc4cc(N5CCOCC5)ccc34)c(F)cc2Cl)nn1` + Cn1nnc2c(C(N)=O)ncn2c1=O the IC50 [1] was 477 nM, the IC50 [2] was 574 nM and the IC50 [3] was 602 nM. For the same compound, the IC50 [4] was 623 nM, the IC50 [5] was 547 nM and the viability, T/C [6] was 94.9%. For the same compound, the viability, T/C [7] was 79.5%, the viability, T/C [8] was 56.8% and the viability, T/C [9] was 37.9%. It also gave a viability, T/C [10] of 15.8%, a viability, T/C [11] of 7.65% and a viability, T/C [12] of 92.4%. It also gave a viability, T/C [13] of 89.6%, a viability, T/C [14] of 70% and a viability, T/C [15] of 31%. For the same compound, the viability, T/C [16] was 13.2%, the viability, T/C [17] was 7.49% and the viability, T/C [18] was 92.5%. The viability, T/C [19] was 84.4%, the viability, T/C [20] was 63.5% and the viability, T/C [21] was 41.5%. The viability, T/C [22] was 11.4%, the viability, T/C [23] was 7.61% and the viability, T/C [24] was 85.6%. For the same compound, the viability, T/C [25] was 83%, the viability, T/C [26] was 65.8% and the viability, T/C [27] was 38.8%. For the same compound, the viability, T/C [28] was 16.1%, the viability, T/C [29] was 7.46% and the viability, T/C [30] was 96.2%. It also gave a viability, T/C [31] of 98.1%, a viability, T/C [32] of 61.5% and a viability, T/C [33] of 35%. For the same compound, the viability, T/C [34] was 13.9% and the viability, T/C [35] was 8.08%.
For `COc1cc(C)[nH]c(=O)c1CN1CCc2c(Cl)cc(C(OC)C3COC3)c(Cl)c2C1=O` (configuration not stated), the viability, T/C (compound 0.0316 µM) was 90.1% and 94.4%, the outcome (compound 0.0316 µM) was “inactive” and the viability, T/C (compound 0.1 µM) was 60.6% and 79.6% and 86.1%. For the same compound, the viability, T/C (compound 0.316 µM) was 62.8% and 67% and 69.9%, the viability, T/C (compound 1 µM) was 50.1% and 56.3% and 63.1% and the viability, T/C (compound 3.16 µM) was 44.1% and 54.4% and 58.9%. For the same compound, the viability, T/C (compound 10 µM) was 41.7% and 49.4% and 52.7% and the IC50 (curve of compound) was 1550 nM and > 10000 nM.
With `[2H]c1nc(C)nc([2H])c1-c1cc(NC[C@@H](C)c2cccc3c(C(=O)NC)ccnc23)ncn1` the viability, T/C (compound 0.0316 µM) was 70.8% and 104% and 89.9%, the viability, T/C (compound 0.1 µM) was 77.2% and 94.7% and 88.6% and the viability, T/C (compound 0.316 µM) was 80% and 92.6% and 90.8%. For the same compound, the viability, T/C (compound 1 µM) was 79.4% and 104% and 99.8%, the viability, T/C (compound 3.16 µM) was 86.9% and 95.6% and 103% and the viability, T/C (compound 10 µM) was 83.2% and 99.6% and 104%. For the same compound, the IC50 (curve of compound) was over 10000 nM.
With `CC(C)n1c(=O)n(C)c2cnc3cc(F)c(-c4ccc(OCCCN5CCCCC5)nc4)cc3c21` the viability, T/C (compound 0.0316 µM) was 77.7% and 93.7% and 97.1%, the viability, T/C (compound 0.1 µM) was 74.2% and 93.9% and 95.2% and the viability, T/C (compound 0.316 µM) was 73.1% and 90.5% and 92.7%. The viability, T/C (compound 1 µM) was 85.2% and 100% and 99%, the viability, T/C (compound 3.16 µM) was 91.6% and 105% (2×) and the viability, T/C (compound 10 µM) was 59.8% and 65.4% and 71.2%. The IC50 (curve of compound) was over 10000 nM.
